From article PMC6199744, “Development of Chemical Proteomics for the Folateome and Analysis of the Kinetoplastid Folateome” (ACS Infectious Diseases, 2018)
Like-named read-outs stand apart in the source and are kept apart here.

Tests used:
Type in all cases: binding
[1] = biological target: T1, HeLa cell extract proteins (Homo sapiens, UniProt P27707)
T1 construct: endogenous in cells; host or cells: HeLa cell extract

[2] = biological target: T2, HeLa cell extract proteins (Homo sapiens, UniProt P31040)
T2 construct: endogenous in cells; host or cells: HeLa cell extract

[3] = biological target: T3, HeLa cell extract proteins (Homo sapiens, UniProt P31153)
T3 construct: endogenous in cells; host or cells: HeLa cell extract
T3 sequence (P31153 whole entry): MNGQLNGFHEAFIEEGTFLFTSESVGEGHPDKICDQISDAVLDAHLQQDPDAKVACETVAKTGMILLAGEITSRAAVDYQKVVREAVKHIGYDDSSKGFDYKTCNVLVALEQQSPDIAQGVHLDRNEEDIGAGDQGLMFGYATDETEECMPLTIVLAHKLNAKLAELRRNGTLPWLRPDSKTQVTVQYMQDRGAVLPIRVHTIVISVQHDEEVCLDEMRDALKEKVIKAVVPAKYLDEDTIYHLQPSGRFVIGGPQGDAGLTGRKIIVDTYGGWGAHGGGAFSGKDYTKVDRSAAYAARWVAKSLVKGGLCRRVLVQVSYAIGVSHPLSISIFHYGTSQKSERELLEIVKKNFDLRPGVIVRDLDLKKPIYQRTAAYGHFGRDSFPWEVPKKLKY

[4] = biological target: T4, HeLa cell extract proteins (Homo sapiens, UniProt P42704)
T4 construct: endogenous in cells; host or cells: HeLa cell extract

[5] = biological target: T5, HeLa cell extract proteins (Homo sapiens, UniProt P49336)
T5 construct: endogenous in cells; host or cells: HeLa cell extract
T5 sequence (P49336 whole entry): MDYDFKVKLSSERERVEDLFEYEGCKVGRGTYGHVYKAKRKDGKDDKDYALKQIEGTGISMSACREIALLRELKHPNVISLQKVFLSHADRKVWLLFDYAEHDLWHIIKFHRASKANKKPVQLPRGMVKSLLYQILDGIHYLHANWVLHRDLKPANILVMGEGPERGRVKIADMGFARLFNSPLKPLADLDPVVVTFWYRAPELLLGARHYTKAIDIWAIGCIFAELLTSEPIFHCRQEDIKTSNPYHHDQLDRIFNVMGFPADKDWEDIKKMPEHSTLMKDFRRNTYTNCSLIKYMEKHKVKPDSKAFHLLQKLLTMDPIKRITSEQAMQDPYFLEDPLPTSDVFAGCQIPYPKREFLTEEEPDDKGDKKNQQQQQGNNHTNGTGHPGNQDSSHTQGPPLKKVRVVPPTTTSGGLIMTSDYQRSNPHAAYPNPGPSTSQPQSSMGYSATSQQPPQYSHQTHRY

[6] = biological target: T6, HeLa cell extract proteins (Homo sapiens, UniProt P53611)
T6 construct: endogenous in cells; host or cells: HeLa cell extract
T6 sequence (P53611 1-331): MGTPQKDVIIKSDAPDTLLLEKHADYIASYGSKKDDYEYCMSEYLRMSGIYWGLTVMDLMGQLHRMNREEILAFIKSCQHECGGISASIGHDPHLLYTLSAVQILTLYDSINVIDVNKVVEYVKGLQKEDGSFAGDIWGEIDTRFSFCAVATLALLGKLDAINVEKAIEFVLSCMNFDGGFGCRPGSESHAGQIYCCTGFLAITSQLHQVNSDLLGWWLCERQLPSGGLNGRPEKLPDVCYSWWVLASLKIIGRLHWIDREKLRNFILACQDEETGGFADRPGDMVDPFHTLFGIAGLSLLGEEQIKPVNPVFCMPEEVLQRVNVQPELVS

[7] = biological target: T7, HeLa cell extract proteins (Homo sapiens, UniProt P62258)
T7 construct: endogenous in cells; host or cells: HeLa cell extract
T7 sequence (P62258 1-255): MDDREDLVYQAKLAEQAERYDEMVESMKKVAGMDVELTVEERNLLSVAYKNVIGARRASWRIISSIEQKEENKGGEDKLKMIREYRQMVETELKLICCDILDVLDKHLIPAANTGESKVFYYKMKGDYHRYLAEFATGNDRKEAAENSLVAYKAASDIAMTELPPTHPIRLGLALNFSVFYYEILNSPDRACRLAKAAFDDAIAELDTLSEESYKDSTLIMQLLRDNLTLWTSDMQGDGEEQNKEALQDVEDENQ

[8] = biological target: T8, HeLa cell extract proteins (Homo sapiens, UniProt Q13263)
T8 construct: endogenous in cells; host or cells: HeLa cell extract

[9] = biological target: T9, HeLa cell extract proteins (Homo sapiens, UniProt Q6UXN9)
T9 construct: endogenous in cells; host or cells: HeLa cell extract

[10] = biological target: T10, HeLa cell extract proteins (Homo sapiens, UniProt Q92616)
T10 construct: endogenous in cells; host or cells: HeLa cell extract
T10 sequence (Q92616 whole entry): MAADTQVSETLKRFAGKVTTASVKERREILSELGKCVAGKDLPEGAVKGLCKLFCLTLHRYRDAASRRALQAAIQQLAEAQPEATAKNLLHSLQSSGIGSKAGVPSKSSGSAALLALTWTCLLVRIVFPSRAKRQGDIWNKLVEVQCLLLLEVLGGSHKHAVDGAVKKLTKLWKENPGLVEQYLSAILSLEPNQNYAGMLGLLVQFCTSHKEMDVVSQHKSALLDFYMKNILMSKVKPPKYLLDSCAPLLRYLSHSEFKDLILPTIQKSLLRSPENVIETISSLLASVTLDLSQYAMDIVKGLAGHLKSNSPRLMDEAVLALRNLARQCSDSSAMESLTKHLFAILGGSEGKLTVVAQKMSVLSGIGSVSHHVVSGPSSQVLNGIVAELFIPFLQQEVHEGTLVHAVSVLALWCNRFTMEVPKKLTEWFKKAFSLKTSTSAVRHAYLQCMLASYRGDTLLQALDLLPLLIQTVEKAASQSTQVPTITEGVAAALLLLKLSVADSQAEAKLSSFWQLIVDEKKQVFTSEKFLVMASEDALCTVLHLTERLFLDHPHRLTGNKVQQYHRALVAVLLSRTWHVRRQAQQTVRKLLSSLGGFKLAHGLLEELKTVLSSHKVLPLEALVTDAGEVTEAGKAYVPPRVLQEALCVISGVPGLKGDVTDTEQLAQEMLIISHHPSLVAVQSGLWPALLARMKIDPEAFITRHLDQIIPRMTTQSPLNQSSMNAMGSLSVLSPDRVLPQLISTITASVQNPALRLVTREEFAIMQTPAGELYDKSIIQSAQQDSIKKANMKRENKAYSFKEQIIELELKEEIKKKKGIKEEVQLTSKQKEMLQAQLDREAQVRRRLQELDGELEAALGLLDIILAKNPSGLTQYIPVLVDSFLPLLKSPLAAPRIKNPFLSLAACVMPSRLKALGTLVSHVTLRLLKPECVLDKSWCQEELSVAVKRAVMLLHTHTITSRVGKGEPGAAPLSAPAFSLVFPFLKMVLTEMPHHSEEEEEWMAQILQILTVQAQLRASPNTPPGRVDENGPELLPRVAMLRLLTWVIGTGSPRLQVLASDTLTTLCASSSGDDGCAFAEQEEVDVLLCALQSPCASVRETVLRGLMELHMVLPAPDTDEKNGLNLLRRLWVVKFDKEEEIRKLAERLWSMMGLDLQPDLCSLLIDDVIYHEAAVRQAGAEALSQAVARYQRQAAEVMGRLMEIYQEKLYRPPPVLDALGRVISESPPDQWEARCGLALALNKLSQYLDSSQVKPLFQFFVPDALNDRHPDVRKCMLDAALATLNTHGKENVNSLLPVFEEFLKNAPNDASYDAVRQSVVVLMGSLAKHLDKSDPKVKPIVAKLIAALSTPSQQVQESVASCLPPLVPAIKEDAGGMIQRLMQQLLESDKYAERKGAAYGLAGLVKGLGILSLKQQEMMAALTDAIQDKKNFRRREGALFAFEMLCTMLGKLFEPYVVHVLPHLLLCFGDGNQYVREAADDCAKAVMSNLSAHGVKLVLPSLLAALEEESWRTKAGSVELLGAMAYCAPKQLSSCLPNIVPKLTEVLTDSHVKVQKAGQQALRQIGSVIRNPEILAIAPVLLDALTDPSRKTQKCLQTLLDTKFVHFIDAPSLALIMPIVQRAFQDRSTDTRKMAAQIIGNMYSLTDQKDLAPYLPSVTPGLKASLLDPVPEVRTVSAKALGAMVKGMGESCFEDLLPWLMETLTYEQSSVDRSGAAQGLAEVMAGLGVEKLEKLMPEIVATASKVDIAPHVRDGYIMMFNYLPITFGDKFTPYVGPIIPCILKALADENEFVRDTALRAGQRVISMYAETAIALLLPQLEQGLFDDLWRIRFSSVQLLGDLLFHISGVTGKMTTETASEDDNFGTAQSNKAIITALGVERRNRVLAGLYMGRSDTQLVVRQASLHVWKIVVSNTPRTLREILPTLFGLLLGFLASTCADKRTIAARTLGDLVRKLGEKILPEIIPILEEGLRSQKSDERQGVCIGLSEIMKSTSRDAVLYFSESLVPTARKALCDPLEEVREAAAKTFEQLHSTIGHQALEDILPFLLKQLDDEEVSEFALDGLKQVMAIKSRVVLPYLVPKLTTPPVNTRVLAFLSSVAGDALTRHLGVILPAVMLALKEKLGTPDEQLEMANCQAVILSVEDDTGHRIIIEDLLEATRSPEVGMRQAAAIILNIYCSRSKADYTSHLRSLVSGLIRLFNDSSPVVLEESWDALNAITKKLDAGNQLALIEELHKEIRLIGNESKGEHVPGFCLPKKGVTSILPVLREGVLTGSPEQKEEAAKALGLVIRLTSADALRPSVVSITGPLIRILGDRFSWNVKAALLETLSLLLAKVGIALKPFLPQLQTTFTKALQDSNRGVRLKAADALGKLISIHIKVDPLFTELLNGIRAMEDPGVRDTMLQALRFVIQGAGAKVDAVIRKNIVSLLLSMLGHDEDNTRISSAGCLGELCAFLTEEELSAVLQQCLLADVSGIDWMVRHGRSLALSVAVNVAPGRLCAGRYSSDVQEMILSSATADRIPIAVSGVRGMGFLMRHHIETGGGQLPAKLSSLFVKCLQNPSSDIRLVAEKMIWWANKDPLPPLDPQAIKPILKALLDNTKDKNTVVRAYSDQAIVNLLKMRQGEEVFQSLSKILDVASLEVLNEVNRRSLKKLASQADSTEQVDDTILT

[11] = biological target: T11, HeLa cell extract proteins (Homo sapiens, UniProt Q969S8)
T11 construct: endogenous in cells; host or cells: HeLa cell extract
T11 sequence (Q969S8 1-669): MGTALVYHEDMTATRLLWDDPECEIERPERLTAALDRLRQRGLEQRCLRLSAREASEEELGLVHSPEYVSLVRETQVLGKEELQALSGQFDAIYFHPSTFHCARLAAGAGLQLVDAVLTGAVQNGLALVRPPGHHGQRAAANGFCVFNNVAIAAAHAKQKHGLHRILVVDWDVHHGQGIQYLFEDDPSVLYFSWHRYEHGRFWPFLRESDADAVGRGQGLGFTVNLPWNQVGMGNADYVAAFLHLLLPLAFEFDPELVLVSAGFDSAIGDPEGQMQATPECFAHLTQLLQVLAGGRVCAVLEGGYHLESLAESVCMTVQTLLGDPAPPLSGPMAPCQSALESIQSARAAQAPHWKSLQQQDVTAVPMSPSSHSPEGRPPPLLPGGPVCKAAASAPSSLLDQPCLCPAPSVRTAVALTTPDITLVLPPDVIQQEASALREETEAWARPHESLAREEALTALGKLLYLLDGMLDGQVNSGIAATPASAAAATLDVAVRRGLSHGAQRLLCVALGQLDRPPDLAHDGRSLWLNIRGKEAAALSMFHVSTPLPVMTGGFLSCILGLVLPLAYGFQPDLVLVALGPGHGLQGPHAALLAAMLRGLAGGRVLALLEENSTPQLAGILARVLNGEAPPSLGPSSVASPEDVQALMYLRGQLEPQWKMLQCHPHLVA

[12] = biological target: T12, HeLa cell extract proteins (Homo sapiens, UniProt Q9C0E2)
T12 construct: endogenous in cells; host or cells: HeLa cell extract
T12 sequence (Q9C0E2 whole entry): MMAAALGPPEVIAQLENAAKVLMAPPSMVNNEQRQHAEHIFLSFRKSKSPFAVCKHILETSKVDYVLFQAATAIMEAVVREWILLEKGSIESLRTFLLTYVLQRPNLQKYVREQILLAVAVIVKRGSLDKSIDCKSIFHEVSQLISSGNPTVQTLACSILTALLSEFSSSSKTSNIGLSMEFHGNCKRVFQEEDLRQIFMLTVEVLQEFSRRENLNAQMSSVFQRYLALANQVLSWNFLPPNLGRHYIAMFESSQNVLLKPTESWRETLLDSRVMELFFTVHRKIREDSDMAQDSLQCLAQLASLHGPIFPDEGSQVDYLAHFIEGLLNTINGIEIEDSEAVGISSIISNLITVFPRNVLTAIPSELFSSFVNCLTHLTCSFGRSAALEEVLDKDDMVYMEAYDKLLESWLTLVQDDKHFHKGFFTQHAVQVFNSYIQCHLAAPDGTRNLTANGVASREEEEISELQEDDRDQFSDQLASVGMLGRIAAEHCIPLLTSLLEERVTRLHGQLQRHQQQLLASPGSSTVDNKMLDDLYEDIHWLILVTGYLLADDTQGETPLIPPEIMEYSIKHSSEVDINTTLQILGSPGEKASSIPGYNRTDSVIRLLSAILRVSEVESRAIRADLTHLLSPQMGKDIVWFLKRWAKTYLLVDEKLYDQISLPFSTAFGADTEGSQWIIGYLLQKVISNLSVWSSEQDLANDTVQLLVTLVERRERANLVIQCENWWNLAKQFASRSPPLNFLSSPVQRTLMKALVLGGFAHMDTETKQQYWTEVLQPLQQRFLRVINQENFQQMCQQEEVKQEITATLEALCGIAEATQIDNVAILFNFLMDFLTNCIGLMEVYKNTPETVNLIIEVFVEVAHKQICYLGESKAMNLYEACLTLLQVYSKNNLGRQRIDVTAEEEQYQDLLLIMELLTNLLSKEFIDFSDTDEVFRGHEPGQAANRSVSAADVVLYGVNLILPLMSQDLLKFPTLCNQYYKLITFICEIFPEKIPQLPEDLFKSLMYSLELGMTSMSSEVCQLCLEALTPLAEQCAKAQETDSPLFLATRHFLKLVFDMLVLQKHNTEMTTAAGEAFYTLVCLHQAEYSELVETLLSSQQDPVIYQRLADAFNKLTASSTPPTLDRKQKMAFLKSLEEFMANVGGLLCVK

[13] = biological target: T13, HeLa cell extract proteins (Homo sapiens, UniProt Q9H903)
T13 construct: endogenous in cells; host or cells: HeLa cell extract
T13 sequence (Q9H903 1-347): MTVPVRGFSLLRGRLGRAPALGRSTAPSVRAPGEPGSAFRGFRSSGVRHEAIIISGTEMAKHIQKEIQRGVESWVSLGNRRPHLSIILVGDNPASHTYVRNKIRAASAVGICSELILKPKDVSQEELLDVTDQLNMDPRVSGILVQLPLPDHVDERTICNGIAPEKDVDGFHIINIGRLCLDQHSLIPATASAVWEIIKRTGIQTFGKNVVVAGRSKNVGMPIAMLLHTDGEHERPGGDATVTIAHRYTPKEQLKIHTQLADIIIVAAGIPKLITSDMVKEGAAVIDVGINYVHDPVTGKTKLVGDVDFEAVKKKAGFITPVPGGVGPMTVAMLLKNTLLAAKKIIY

T1 sequence (P27707 whole entry): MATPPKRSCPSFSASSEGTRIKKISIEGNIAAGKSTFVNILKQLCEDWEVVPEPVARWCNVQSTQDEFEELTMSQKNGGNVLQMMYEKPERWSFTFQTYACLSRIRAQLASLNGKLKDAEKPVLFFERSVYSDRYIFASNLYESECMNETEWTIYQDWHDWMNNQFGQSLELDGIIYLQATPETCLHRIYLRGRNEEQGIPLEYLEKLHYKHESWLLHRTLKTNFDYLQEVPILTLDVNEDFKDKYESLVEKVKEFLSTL

SMILES: Nc1nc2c(c(=O)[nH]1)N(C=O)C(CNc1ccc(C(=O)N[C@@H](CCC(=O)O)C(=O)O)cc1)CN2 (stereo partly shown) [LEU, leucovorin]
- fold changes relative to vehicle control ([1]; HeLa, protein DCK (DEO[…])): 1.12
- fold changes relative to vehicle control ([2]; HeLa, captured protein SDHA): 1
- fold changes relative to vehicle control ([3]; HeLa, protein MAT2A): 0.99
- fold changes relative to vehicle control ([4]; HeLa, protein LRPPRC): 0.92
- fold changes relative to vehicle control ([5]; protein CDK8, HeLa): 1.14
- fold changes relative to vehicle control ([6]; HeLa, captured protein RABGGTB): 1.01
- fold changes relative to vehicle control ([7]; HeLa, protein YWHAE): 1.01
- fold changes relative to vehicle control ([8]; protein TRIM28, HeLa): 0.88
- fold changes relative to vehicle control ([9]; HeLa, captured protein WDR82): 0.8
- fold changes relative to vehicle control ([10]; HeLa, captured protein GCN1L1): 1.04
- fold changes relative to vehicle control ([11]; HeLa, protein HDAC10): 0.95
- fold changes relative to vehicle control ([12]; HeLa, protein XPO4): 0.92
- fold changes relative to vehicle control ([13]; HeLa, protein MTHFD2L): 0.9

SMILES: NCCCNc1ccc(C(=O)NC(CCC(=O)O)C(=O)O)cc1 (stereo not shown) [compound 7]
- fold changes relative to vehicle control ([1]; HeLa, protein DCK (DEO[…])): 1.04
- fold changes relative to vehicle control ([2]; HeLa, captured protein SDHA): 0.92
- fold changes relative to vehicle control ([3]; HeLa, protein MAT2A): 1
- fold changes relative to vehicle control ([4]; HeLa, protein LRPPRC): 1.21
- fold changes relative to vehicle control ([5]; protein CDK8, HeLa): 1.01
- fold changes relative to vehicle control ([6]; HeLa, captured protein RABGGTB): 1.03
- fold changes relative to vehicle control ([7]; HeLa, protein YWHAE): 1.03
- fold changes relative to vehicle control ([8]; protein TRIM28, HeLa): 0.9
- fold changes relative to vehicle control ([9]; HeLa, captured protein WDR82): 0.97
- fold changes relative to vehicle control ([10]; HeLa, captured protein GCN1L1): 1.15
- fold changes relative to vehicle control ([11]; HeLa, protein HDAC10): 0.95
- fold changes relative to vehicle control ([12]; HeLa, protein XPO4): 1
- fold changes relative to vehicle control ([13]; HeLa, protein MTHFD2L): 1

SMILES: CCCCCCOc1cccc(Cc2cnc(N)nc2N)c1 [compound 2]
- fold changes relative to vehicle control ([1]; protein DCK, HeLa): 0.9
- fold changes relative to vehicle control ([2]; protein SDHA, HeLa): 1.2
- fold changes relative to vehicle control ([3]; protein MAT2A, HeLa): 1.55
- fold changes relative to vehicle control ([4]; protein LRPPRC, HeLa): 1.33
- fold changes relative to vehicle control ([5]; captured protein CDK8, HeLa): 0.8
- fold changes relative to vehicle control ([6]; protein RABGGTB, HeLa): 1.01
- fold changes relative to vehicle control ([7]; protein YWHAE, HeLa): 2
- fold changes relative to vehicle control ([8]; protein TRIM28, HeLa): 1.44
- fold changes relative to vehicle control ([9]; captured protein WDR82, HeLa): 1.01
- fold changes relative to vehicle control ([10]; HeLa, protein GCN1L1): 1.14
- fold changes relative to vehicle control ([11]; captured protein HDAC10, HeLa): 0.88
- fold changes relative to vehicle control ([12]; HeLa, protein XPO4): 1.08
- fold changes relative to vehicle control ([13]; HeLa, protein MTHFD2L): 0.89

SMILES: CCCCCCOc1ccc(Cc2cnc(N)nc2N)cc1 [compound 1]
- fold changes relative to vehicle control ([1]; protein DCK, HeLa): 0.98
- fold changes relative to vehicle control ([2]; protein SDHA, HeLa): 1.19
- fold changes relative to vehicle control ([3]; protein MAT2A, HeLa): 1.21
- fold changes relative to vehicle control ([4]; protein LRPPRC, HeLa): 0.92
- fold changes relative to vehicle control ([5]; captured protein CDK8, HeLa): 0.96
- fold changes relative to vehicle control ([6]; protein RABGGTB, HeLa): 1.07
- fold changes relative to vehicle control ([7]; protein YWHAE, HeLa): 1.37
- fold changes relative to vehicle control ([8]; protein TRIM28, HeLa): 1.12
- fold changes relative to vehicle control ([9]; captured protein WDR82, HeLa): 0.75
- fold changes relative to vehicle control ([10]; HeLa, protein GCN1L1): 1.07
- fold changes relative to vehicle control ([11]; captured protein HDAC10, HeLa): 0.82
- fold changes relative to vehicle control ([12]; HeLa, protein XPO4): 0.91
- fold changes relative to vehicle control ([13]; HeLa, protein MTHFD2L): 0.3

SMILES: Nc1nc2cccc(-c3ccccc3)c2n1Cc1ccc(Cl)c(Cl)c1 [compound 3]
- fold changes relative to vehicle control ([1]; protein DCK, HeLa): 1.01
- fold changes relative to vehicle control ([2]; protein SDHA, HeLa): 1.02
- fold changes relative to vehicle control ([3]; protein MAT2A, HeLa): 1.01
- fold changes relative to vehicle control ([4]; protein LRPPRC, HeLa): 0.74
- fold changes relative to vehicle control ([5]; captured protein CDK8, HeLa): 1.03
- fold changes relative to vehicle control ([6]; protein RABGGTB, HeLa): 1.06
- fold changes relative to vehicle control ([7]; protein YWHAE, HeLa): 1.03
- fold changes relative to vehicle control ([8]; protein TRIM28, HeLa): 1.02
- fold changes relative to vehicle control ([9]; captured protein WDR82, HeLa): 0.9
- fold changes relative to vehicle control ([10]; HeLa, protein GCN1L1): 1.16
- fold changes relative to vehicle control ([11]; captured protein HDAC10, HeLa): 0.9
- fold changes relative to vehicle control ([12]; HeLa, protein XPO4): 1.07
- fold changes relative to vehicle control ([13]; HeLa, protein MTHFD2L): 1.07

SMILES: NCCOCCOCC(=O)Nc1nc2ncc(CNc3ccc(C(=O)NC(CCC(=O)O)C(=O)O)cc3)nc2c(=O)[nH]1 (stereo not shown) [compound 6]
- fold changes relative to vehicle control ([1]; HeLa, protein DCK (DEOXYCYTIDINE KINASE)): 0.93
- fold changes relative to vehicle control ([2]; HeLa, captured protein SDHA): 1.06
- fold changes relative to vehicle control ([3]; HeLa, protein MAT2A): 1.16
- fold changes relative to vehicle control ([4]; HeLa, protein LRPPRC): 1.22
- fold changes relative to vehicle control ([5]; protein CDK8, HeLa): 0.9
- fold changes relative to vehicle control ([6]; HeLa, captured protein RABGGTB): 0.91
- fold changes relative to vehicle control ([7]; HeLa, protein YWHAE): 1.17
- fold changes relative to vehicle control ([8]; protein TRIM28, HeLa): 1.02
- fold changes relative to vehicle control ([9]; HeLa, captured protein WDR82): 0.89
- fold changes relative to vehicle control ([10]; HeLa, captured protein GCN1L1): 1.15
- fold changes relative to vehicle control ([11]; HeLa, protein HDAC10): 0.82
- fold changes relative to vehicle control ([12]; HeLa, protein XPO4): 0.94
- fold changes relative to vehicle control ([13]; HeLa, protein MTHFD2L): 0.97

SMILES: Nc1nc2[nH]cc(CCc3ccc(C(=O)N[C@@H](CCC(=O)O)C(=O)O)cc3)c2c(=O)[nH]1 [PTX, pemetrexed]
- fold changes relative to vehicle control [1]: 1
- fold changes relative to vehicle control [2]: 0.97
- fold changes relative to vehicle control [3]: 1.07
- fold changes relative to vehicle control [4]: 1.15
- fold changes relative to vehicle control [5]: 0.77
- fold changes relative to vehicle control [6]: 0.97
- fold changes relative to vehicle control [7]: 1.1
- fold changes relative to vehicle control [8]: 0.97
- fold changes relative to vehicle control [9]: 0.72
- fold changes relative to vehicle control [10]: 1.02
- fold changes relative to vehicle control [11]: 0.85
- fold changes relative to vehicle control [12]: 0.82
- fold changes relative to vehicle control [13]: 0.9
